Data set [1] is described as follows: Test A: cytotoxicity in mock-infected MT-4 cells (MTT). The format is cell-based. The settings on record: human. Here is the method: (§1) A rapid, sensitive and automated assay procedure was used for the in vitro evaluation of anti-HIV agents. An […] T4-cell line, MT-4, which was previously shown (Koyanagi et al., Int. J. Cancer, 36, 445-451, 1985) to be highly susceptible to and permissive for HIV infection, served as the target cell line. Inhibition of the HIV-induced cytopathic effect was used as the end point. The viability of both HIV- and mock-infected cells was assessed spectrophotometrically via the in situ reduction of 3-(4,5-dimethylthiazol-2-yl)-2,5-diphenyltetrazolium bromide (MTT). […] The percent protection achieved by the compound in HTV-infected cells was calculated by the following formula:
(§2) [formula] whereby (ODT)HIV is the optical density measured with a given concentration of the test compound in HIV-infected cells; (ODC)HIV is the optical density measured for the control unteated HIV-infected cells; (ODC)MOCK is the optical density measured for the control untreated mock-infected cells; all optical density values were determined at 540 nm. […] The ratio of CC50 to IC50 was defined as the selectivity index (SI).

The subject of data set [2] is HIV. Nature of the data set: Test A: inhibition of the HIV-induced cytopathic effect in MT-4 cells (MTT). In kind it is cell-based. The method, then:
as §1, §2
In general terms: Cytopathic effects are the visible damage that an infection or toxin causes in cultured cells.

The subject of data set [3] is HIV. The data set is described as follows: Test B: HIV infection measured fluorometrically in MT-4 cells engineered with GFP (HIV-specific promotor). As to conditions: Human immunodeficiency virus 1, MT4. The format is cell-based. The method, then:
(§3) An […] T4-cell line, MT-4, which was previously shown (Koyanagi et al., Int. J. Cancer, 36, 445-451, 1985) to be highly susceptible to and permissive for HIV infection, served as the target cell line. In these cells, engineered with GFP (and an HIV-specific promotor), ongoing HIV-infection was measured fluorometrically. Cytotoxicity is measured in the same cells, but engineered with GFP under a constitutional promoter. The infection (or inhibition thereof) of HIV infected cells and the flourescence of mock-infected cells is assessed by the fluorescent GFP signal generated by the two above mentioned cell lines.

Data set [4] can be described thus: Test B: cytotoxicity in mock-infected MT-4 cells engineered with GFP under a constitutional promoter. As to conditions: human. In kind it is cell-based. The method, then: as §3
Another data set relates to mock-infected MT-4 cells. The data set is described as above. In kind it is cell-based. The method, then: as §3
Setting [5] is: Human immunodeficiency virus 1, MT4, read-out: pIC50 (converted).

These results are taken from patent US7585861B2, “HIV inhibiting 1,2,4-triazines” (Janssen Pharmaceutica, N.V., priority 2003, dated 2009).

pIC50: −log10 of the molar value. Some results are limits rather than exact numbers.

In general, melting point refers to the temperature, or range, at which the solid turns liquid. `Cc1cc(CCC#N)cc(C)c1Nc1nnc(Cl)c(Nc2ccc(C#N)cc2)n1` registered a melting point of 266 to 267 °C.

One may read the CC50 as the concentration that lowers cell viability or growth by half. A lower CC50 goes with greater toxicity to the cells. Molecule `Cc1cc(C#N)cc(C)c1Nc1cnnc(Nc2ccc(C#N)cc2)n1` [Compound 1] yielded a CC50 in data set [1] (mock-infected MT-4 cells) of more than 100000 nM. Further, the IC50 in the data set with HIV [2] (setting [5]) was 2e-09 M.

In the case of `Cc1cc(C#N)cc(C)c1Oc1nc(Nc2ccc(C#N)cc2)nnc1Cl` [Compound 3], the CC50 in data set [1] (mock-infected MT-4 cells) is more than 100000 nM. For the same molecule, the IC50 in the data set with HIV [2] (setting [5]) was 5.01e-09 M.

On to `COc1cc(OC)c(Nc2cnnc(Nc3ccc(C#N)cc3)n2)c(OC)c1` [Compound 36], for which the CC50 in data set [1] (mock-infected MT-4 cells) was more than 100000 nM. The IC50 in the data set with HIV [2] (setting [5]) is 5.01e-10 M.

In the case of `Cc1cc(C)c(Nc2nc(Nc3ccc(C#N)cc3)nnc2Cl)c(C)c1` [Compound 44], the CC50 in data set [1] is more than 25100 nM. In addition, in the data set with HIV [2] (Human immunodeficiency virus 1, MT4, read-out: pIC50 (M) (converted)), the IC50 was 2.51e-09 M.

The term pIC50 denotes −log10 of the IC50, conventionally taken in molar units. Read a high pIC50 as a small IC50. The molecule `Cc1cc(/C=C/C(N)=O)cc(C)c1Oc1nc(Nc2ccc(C#N)cc2)nnc1C` [Compound 48] had a pIC50 with HIV [3] of 9.20. Besides, in data set [4], the CC50 is 25100 nM.

`Cc1cc(/C=C/C(N)=O)cc(C)c1Nc1nc(Nc2ccc(C#N)cc2)nnc1C` [Compound 58]: the pIC50 in the data set with HIV [3] is 6.60. The molecule further gave a CC50 in data set [4] of 10000 nM.

`N#C/C=C/c1cc(F)c(Nc2nnc(Cl)c(Nc3ccc(C#N)cc3)n2)c(F)c1` [Compound 62] gave a melting point of 276 to 277 °C. This molecule also showed a pIC50 in the data set on HIV [3] of 8.50. In data set [4], this molecule showed a CC50 of 25100 nM.

Consider `N#CCCc1cc(Cl)c(Nc2nnc(Cl)c(Nc3ccc(C#N)cc3)n2)c(Cl)c1` [Compound 74], for which the melting point was 256 to 257 °C. This molecule also had a pIC50 in the data set on HIV [3] of 8.30. This molecule also came in with a CC50 in data set [4] of more than 25100 nM.

In turn, `N#CCCc1cc(Cl)c(Nc2nnc(Cl)c(Nc3ccc(C#N)cc3)n2)c(Br)c1` [Compound 75] displayed a melting point of 252 to 254 °C. In the data set with HIV [3], this molecule gave a pIC50 of 8.50. Besides, the CC50 in data set [4] is more than 25100 nM.

`N#C/C=C/c1cc(Cl)c(Nc2nnc(Cl)c(Nc3ccc(C#N)cc3)n2)c(Cl)c1` [Compound 76] displayed a PCC50 with mock-infected MT-4 cells of less than 4.6.

Take `N#C/C=C/c1cc(Cl)c(Nc2nnc(Cl)c(Nc3ccc(C#N)cc3)n2)c(Br)c1` [Compound 77]: the PCC50 in the data set on mock-infected MT-4 cells amounted to 5.0.
